The values that follow come from patent US20230099204A1, “PHARMACEUTICAL COMPOSITION FOR PREVENTION OR TREATMENT OF CANCER IN WHICH KRAS MUTATION AND ACTIVATED RON ARE PRESENT” (WELLMARKER BIO CO., LTD., priority 2020, published 2023).

The subject of assay [1] is HCT8 (KRAS G13D/pTyr-wtRON(+)). The experiment in a line: Cell line HCT8-transplanted mouse model. It counts as in vivo, BALB/c nude mice. To be noted: 10 mg/kg, oral, once a day for 4 weeks. Here is the method:
5-Week-old female BALB/c nude mice were purchased and acclimatized for 1 week. Then, human colorectal cancer patient-derived cell line SW620 (KRAS
G12V/mRON Δ155) at 5×10^6 cells/mouse was injected subcutaneously (100 μL) into the right dorsal side of the mice. The compound of Example 1 was orally administered when the tumor reached a size of about 100 mm^3. The drug was administered once a day for 4 weeks, and tumor size and mouse body weight were measured twice a week. After completion of the drug administration, the experimental animals were euthanized, and then the tumors were extracted and weighed for comparative analysis.
A portion of the extracted tumor tissue was fixed in 10% formalin and processed into a paraffin block. Then, the block was made into sections. Staining of the slide was performed through immunochemical staining. Another portion of the extracted tumor tissue was subjected to lysis, and then Western blotting was used to identify changes in expression of respective proteins.
The experiment was conducted in the same method as the procedure of Experimental Example 3, except that human colorectal cancer patient-derived cell line HCT8 (KRAS G13D/pTyr-wtRON(+)) was used in place of the human colorectal cancer patient-derived cell line SW620 (KRAS G12V/mRON Δ155), and the respective compounds of Example 1, positive control 1, and positive control 2 were administered.

Assay [2] concerns SW620. Nature of the assay: Cell death induction, trypan blue cell counting, SW620. It counts as cell-based, human. The note with it: 1 μM, 48 hours; for cell death rate: SW620 (KRAS G12V/mRON Δ155), FIG. 2. The protocol:
(§1) Based on the results above, to identify the cell death-inducing ability of the compounds of Example 1 and positive control 1, which are representative materials, preparation was performed by seeding respective colorectal cancer cell lines SNU-[…], HCT8, T84, and SW620 onto 60-mm plates at 3×10^5 cells, and then incubation was performed for 24 hours. Thereafter, treatment with each of Example 1 and positive control 1 was performed at 1μM and incubation was performed for 48 hours. In addition, preparation was performed by seeding the cell line SW620 onto a 60-mm plate at 3×10^5 cells, and then incubation was performed for 24 hours. Thereafter, treatment with each of Example 1, positive control 1, positive control 2, and positive control 3 was performed at 1 μM. After 48 hours, the cells and cell suspensions were collected by treatment with trypsin, resuspended in 1× PBS and stained using a trypan blue solution (Sigma, cat# T8154). The stained cells were counted using a hemocytometer. Cell counting was repeated, and the mean and the standard deviation were calculated.

The test system of assay [3] is T84. Nature of the assay: MTS assay, cytotoxicity on colorectal cancer cell line T84. It counts as cell-based. To be noted: Homo sapiens, RON Δ165, KRAS G13D, 72 hours. The protocol: (§2) MTS assay was performed to compare cytotoxicity of the compounds of Example 1, Example 2, Example 3, Example 4, Example 5, Example 6, and positive control 1 on a colorectal cancer cell line, and a cell death rate of the colorectal cancer cell line was analyzed to compare anticancer activity of the compounds.
(§3) The MTS assay was performed by seeding each colorectal cell line in a 96-well plate at 1,000 cells per well, and after 24 hours, performing treatment with the compounds of Examples 1 to 6 and positive control 1 at various concentrations (0.000001 μM to 10 μM) in 100 μL of 10% FBS-RPMI medium (WELGENE Inc.) per well. The cells were incubated for 72 hours. Then, 20 μL of MTS solution (Promega) was added thereto, and the cells were incubated for 2 hours. Then, the absorbance was measured at 490 nm. The IC50 values for the compounds of Examples 1 to 6 and positive control 1 were calculated using GraphPad Prism™ 5 to investigate cytotoxicity.
For orientation: Tetrazolium dyes change colour on reduction, which living cells bring about.

Assay [4] relates to SNUC2A. The experiment in a line: MTS assay, cytotoxicity on colorectal cancer cell line SNUC2A. It counts as cell-based. To be noted: RON mutation negative, KRAS G12D, 72 hours. The protocol: as §2, §3
In assay [5] the test system is SW620. The experiment in a line: MTS assay, cytotoxicity on colorectal cancer cell line SW620. Type of assay: cell-based. The note with it: Homo sapiens, SW-620, RON Δ155, KRAS G12V, 72 hours. The protocol:
as §2, §3

Assay [6] relates to colorectal cancer cell line. Nature of the assay: MTS assay, summary over the colorectal cancer cell lines. The note with it: summary in words of Table 1. It counts as cell-based. The protocol: as §2, §3
Assay [7] relates to HCT8. Nature of the assay: MTS assay, cytotoxicity on colorectal cancer cell line HCT8. To be noted: Homo sapiens, HCT-8, RON wt, KRAS G13D, 72 hours. Type of assay: cell-based. The protocol: as §2, §3
The test system of assay [8] is DLD1. The experiment in a line: MTS assay, cytotoxicity on colorectal cancer cell line DLD1. It counts as cell-based. To be noted: Homo sapiens, DLD-1, RON wt, KRAS G13D, 72 hours. The protocol:
as §2, §3

Assay [9] deals with HCT15. The experiment in a line: MTS assay, cytotoxicity on colorectal cancer cell line HCT15. Type of assay: cell-based. The note with it: Homo sapiens, HCT-15, RON Δ160, KRAS G13D, 72 hours. Here is the method: as §2, §3
Assay [10] relates to SW480. Nature of the assay: MTS assay, cytotoxicity on colorectal cancer cell line SW480. Type of assay: cell-based. The note with it: Homo sapiens, RON Δ155, KRAS G12V, 72 hours. Here is the method: as §2, §3
In assay [11] the test system is T84. Nature of the assay: Cell death induction, trypan blue cell counting, T84. It counts as cell-based. To be noted: T84 with a RON mutation; 1 μM; 48 hours; FIG. 1. The protocol: as §1, with “hours.” for “hours. In addition, preparation was performed by seeding the cell line SW620 onto a 60-mm plate at 3×10^5 cells, and then incubation was performed for 24 hours. Thereafter, treatment with each of Example 1, positive control 1, positive control 2, and positive control 3 was performed at 1 μM.”

Where a name gives a salt, the structure may show the parent alone. A value given as a limit tells only on which side of the number the result lay.

Take `C[C@@H](Oc1cc(-c2cnn(C3CCNCC3)c2)cnc1N)c1c(Cl)ccc(F)c1Cl` [Positive control 2, reference compound]: the “Tumor growth inhibition (TGI, %)” value in assay [1] was determined as 23.2 ± 7.8%. Moreover, the cell death rate entry in assay [2] is given as “cell death was not induced”.
In general, IC50 refers to the point on the concentration scale where inhibition reaches its midpoint. Low values mean higher potency, high ones lower potency. Consider `Cn1cnc(-c2cc3nccc(Oc4ccc(NC(=O)c5c6c(cn(-c7ccc(F)cc7)c5=O)CCO6)cc4F)c3s2)c1` [Example 4], for which the IC50 in assay [3] is 0.17 µM; in [4], 7.53 µM; in assay [5], greater than 10 µM; in assay [7], 1.2 µM; in [8], 0.66 µM; in [9], 1.27 µM. For the same compound, half-maximal inhibition in assay [10] (IC50) required 0.67 µM. For the same compound, the “efficiency / response in MTS assay over the cell lines” value in assay [6] was “high efficiency in the cell lines (HCT8 and DLD-1)”.
As for `CCOc1ccn(-c2ccccc2)c(=O)c1C(=O)Nc1ccc(Oc2ccnc3cc(-c4ccc(CN5CCN(C)CC5)cn4)sc23)c(F)c1` [Example 3, 4-ethoxy-N-{3-fluoro-4-[(2-{5-[(4-methylpiperazin-1-yl)methyl]pyridin-2-yl}thieno[3,2-b]pyridin-7-yl)oxy]phenyl}-2-oxo-1-phenyl-1,2-dihydropyridine-3-carboxamide hydrochloride], the 50% inhibitory concentration (IC50) in assay [3] is 0.22 µM; in [4], 4.6 µM; in [5], 0.26 µM; in assay [7], 0.48 µM; in assay [8], 0.3 µM; in [9], 0.39 µM. The compound also displayed an IC50 in assay [10] of 0.66 µM.
Consider `CCOc1ccn(-c2ccc(F)cc2)c(=O)c1C(=O)Nc1ccc(Oc2ccnc(N)c2Cl)c(F)c1` [Positive control 1, N-{4-[(2-amino-3-chloro-4-pyridinyl)oxy]-3-fluorophenyl}-4-ethoxy-1-(4-fluorophenyl)-2-oxo-1,2-dihydro-3-pyridinecarboxamide, reference compound], for which the IC50 in assay [3] was 8.4 µM; in assay [4], greater than 10 µM; in assay [5], 5 µM; in assay [7], 7.32 µM; in assay [8], 4.72 µM; in assay [9], 3.24 µM. Also, in assay [10], it took 3.54 µM to reach half-maximal inhibition (IC50). In addition, the “Tumor growth inhibition (TGI, %)” value in assay [1] is reported as −7.5 ± 36.3%. For the same compound, the “efficiency / response in MTS assay over the cell lines” value in [6] is reported as “high IC50 values in most cell lines”. Besides, the cell death rate entry in [2] is reported as “cell death was not induced”. The “cell death induction efficacy” value in [2] (SW620 with a RON mutation, FIG. 1) is reported as “little response”; in assay [11] it was “little response”.
Turning to `COc1cc2nccc(Oc3ccc(NC(=O)C4(C(=O)Nc5ccc(F)cc5)CC4)cc3)c2cc1OC` [Positive control 3, N-(4-{[6,7-bis(methyloxy)quinoline-4-yl]oxy}phenyl)-N′-(4-fluorophenyl)cyclopropane-1,1-dicarboxamide], the cell death rate result in assay [2] is on record as “cell death was not induced”.
With `COc1cc2c(Oc3ccc(NC(=O)c4c5c(cn(-c6ccc(F)cc6)c4=O)CCO5)cc3F)ccnc2cc1OCCN1CCOCC1` [Example 5, N-(3-fluoro-4-((6-methoxy-7-(2-morpholinoethoxy)quinolin-4-yl)oxy)phenyl)-5-(4-fluorophenyl)-6-oxo-2,3,5,6-tetrahydrofuro[3,2-c]pyridine-7-carboxamide], the half-inhibitory concentration (IC50) came to 0.81 µM in assay [3]; 3.82 µM in assay [4]; 1 µM in [5]; 0.78 µM in [7]; 0.23 µM in assay [8]; 0.39 µM in assay [9]. This compound also yielded an IC50 in assay [10] of 0.11 µM.
Turning to `CCOc1ccn(-c2ccccc2)c(=O)c1C(=O)Nc1ccc(Oc2ccnc3cc(-c4ccc(CNCCOC)cn4)sc23)c(F)c1` [Example 2, 4-ethoxy-N-(3-fluoro-4-{[2-(5-{[(2-methoxyethyl)amino]methyl}pyridine-2-yl)thieno[3,2-b]pyridine-7-yl]oxy}phenyl)-2-oxo-1-phenyl-1,2-dihydropyridine-3-carboxamide hydrochloride], the IC50 in assay [3] was found to be 0.21 µM; in [4] it was 4.44 µM; in assay [5] it was 0.37 µM; in assay [7], 0.26 µM; in assay [8] it was 0.21 µM; in [9], 0.22 µM. In addition, the concentration for half-maximal inhibition (IC50) in assay [10] turned out to be 1.25 µM.
`COc1cc2c(Oc3ccc(NC(=O)c4c5c(cn(-c6ccc(F)cc6)c4=O)CCO5)cc3F)ccnc2cc1OCCCN1CC(C#N)C1` [Example 6, N-(4-((7-(3-(3-cyanoazetidine-1-yl)propoxy)-6-methoxyquinoline-4-yl)oxy)-3-fluorophenyl)-5-(4-fluorophenyl)-6-oxo-2,3,5,6-tetrahydrofuro[3,2-c]pyridine-7-carboxamide]: the IC50 in assay [3] was determined as 0.2 µM; in assay [4] it was 1.32 µM; in assay [5], 0.11 µM; in assay [7], 0.33 µM; in assay [8], 0.17 µM; in assay [9] it was 0.14 µM. For the same compound, half-maximal inhibition in [10] (IC50) was put at 0.32 µM.
